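Dose response: 5 concentrations. Exposure: 48 h. Format: 96-well plates. Endpoint: linear interpolation; highest concentration if not reached. GI50 marks 50% less growth.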 The source made the active and inactive calls. Rule as the data show it: active = GI50 up to about 1.1 µM and inactive = higher.
Key:
Experiment in all cases: NCI-60 cell line screen, 48 h
SF-295 = test system: SF-295
HOP-62 = test system: HOP-62
OVCAR-4 = test system: OVCAR-4
SK-MEL-2 = test system: SK-MEL-2
DMS-273 = test system: DMS-273
UO-31 = test system: UO-31
KM12 = test system: KM12
ACHN = test system: ACHN
TK-10 = test system: TK-10
SR = test system: SR
IGROV-1 = test system: IGROV-1
K562 = test system: K562
M14 = test system: M14
HCT-15 = test system: HCT-15
NCI-H226 = test system: NCI-H226
OVCAR-3 = test system: OVCAR-3
SNB-78 = test system: SNB-78
EKVX = test system: EKVX
UACC-257 = test system: UACC-257
SNB-75 = test system: SNB-75
SK-MEL-5 = test system: SK-MEL-5
M19-MEL = test system: M19-MEL
SF-268 = test system: SF-268
SW-620 = test system: SW-620
SK-MEL-28 = test system: SK-MEL-28
SNB-19 = test system: SNB-19
NCI-H23 = test system: NCI-H23
HCT-116 = test system: HCT-116
OVCAR-8 = test system: OVCAR-8
NCI-H522 = test system: NCI-H522
U-251 = test system: U-251
HCC 2998 = test system: HCC 2998
A498 = test system: A498
NCI-H460 = test system: NCI-H460
SF-539 = test system: SF-539
OVCAR-5 = test system: OVCAR-5
SN12C = test system: SN12C
RXF 631 = test system: RXF 631
HL-60 = test system: HL-60
DLD-1 = test system: DLD-1
CCRF-CEM = test system: CCRF-CEM
Malme-3M = test system: Malme-3M
CAKI-1 = test system: CAKI-1
786-0 = test system: 786-0
A549 = test system: A549
UACC-62 = test system: UACC-62
KM-20L2 = test system: KM-20L2
DMS-114 = test system: DMS-114
HOP-18 = test system: HOP-18
HT-29 = test system: HT-29
LXFL 529 = test system: LXFL 529
MOLT-4 = test system: MOLT-4
RPMI-8226 = test system: RPMI-8226
COLO 205 = test system: COLO 205
SK-OV-3 = test system: SK-OV-3
LOX IMVI = test system: LOX IMVI
HOP-92 = test system: HOP-92
XF498 = test system: XF498
RXF 393 = test system: RXF 393

SMILES: Oc1cc(C2OCCCO2)cc(O)c1O
- GI50 (SF-295): > 100 µM (inactive)
- GI50 (HOP-62): > 100 µM (inactive)
- GI50 (OVCAR-4): > 100 µM (inactive)
- GI50 (SK-MEL-2): > 100 µM (inactive)
- GI50 (DMS-273): > 100 µM (inactive)
- GI50 (UO-31): > 100 µM (inactive)
- GI50 (KM12): > 100 µM (inactive)
- GI50 (ACHN): > 100 µM (inactive)
- GI50 (TK-10): > 100 µM (inactive)
- GI50 (SR): > 100 µM (inactive)
- GI50 (IGROV-1): > 100 µM (inactive)
- GI50 (K562): > 100 µM (inactive)
- GI50 (M14): > 100 µM (inactive)
- GI50 (HCT-15): > 100 µM
- GI50 (NCI-H226): > 100 µM (inactive)
- GI50 (OVCAR-3): > 100 µM (inactive)
- GI50 (SNB-78): > 100 µM (inactive)
- GI50 (EKVX): > 100 µM (inactive)
- GI50 (UACC-257): > 100 µM (inactive)
- GI50 (SNB-75): > 100 µM (inactive)
- GI50 (SK-MEL-5): > 100 µM (inactive)
- GI50 (M19-MEL): > 100 µM (inactive)
- GI50 (SF-268): > 100 µM (inactive)
- GI50 (SW-620): > 100 µM (inactive)
- GI50 (SK-MEL-28): > 100 µM (inactive)
- GI50 (SNB-19): > 100 µM (inactive)
- GI50 (NCI-H23): > 100 µM (inactive)
- GI50 (HCT-116): > 100 µM (inactive)
- GI50 (OVCAR-8): > 100 µM (inactive)
- GI50 (NCI-H522): > 100 µM (inactive)
- GI50 (U-251): > 100 µM (inactive)
- GI50 (HCC 2998): > 100 µM (inactive)
- GI50 (A498): > 100 µM (inactive)
- GI50 (NCI-H460): > 100 µM (inactive)
- GI50 (SF-539): > 100 µM (inactive)
- GI50 (OVCAR-5): > 100 µM (inactive)
- GI50 (SN12C): > 100 µM (inactive)
- GI50 (RXF 631): > 100 µM (inactive)
- GI50 (HL-60): > 100 µM (inactive)
- GI50 (DLD-1): > 100 µM (inactive)
- GI50 (CCRF-CEM): > 100 µM (inactive)
- GI50 (Malme-3M): > 100 µM (inactive)
- GI50 (CAKI-1): > 100 µM (inactive)
- GI50 (786-0): > 100 µM (inactive)
- GI50 (A549): > 100 µM (inactive)
- GI50 (UACC-62): > 100 µM (inactive)
- GI50 (KM-20L2): > 100 µM (inactive)
- GI50 (DMS-114): > 100 µM (inactive)
- GI50 (HOP-18): > 100 µM (inactive)
- GI50 (HT-29): > 100 µM (inactive)
- GI50 (LXFL 529): > 100 µM (inactive)
- GI50 (MOLT-4): > 100 µM (inactive)
- GI50 (RPMI-8226): > 100 µM (inactive)
- GI50 (COLO 205): > 100 µM (inactive)
- GI50 (SK-OV-3): > 100 µM (inactive)

SMILES: COC(=O)C1CCc2c1c(=O)n1c([nH]c3ccccc31)c2C#N (stereo not given)
- GI50 (SF-295): > 100 µM (inactive)
- GI50 (HOP-62): > 100 µM (inactive)
- GI50 (OVCAR-4): > 100 µM (inactive)
- GI50 (SK-MEL-2): > 100 µM (inactive)
- GI50 (DMS-273): > 100 µM (inactive)
- GI50 (UO-31): > 100 µM (inactive)
- GI50 (KM12): > 100 µM (inactive)
- GI50 (ACHN): > 100 µM (inactive)
- GI50 (TK-10): > 100 µM (inactive)
- GI50 (LOX IMVI): > 100 µM (inactive)
- GI50 (IGROV-1): > 100 µM (inactive)
- GI50 (K562): > 100 µM (inactive)
- GI50 (HOP-92): > 100 µM (inactive)
- GI50 (M14): > 100 µM (inactive)
- GI50 (HCT-15): > 100 µM
- GI50 (NCI-H226): > 100 µM (inactive)
- GI50 (OVCAR-3): > 100 µM (inactive)
- GI50 (SNB-78): > 100 µM (inactive)
- GI50 (EKVX): > 100 µM (inactive)
- GI50 (UACC-257): > 100 µM (inactive)
- GI50 (SNB-75): > 100 µM (inactive)
- GI50 (SK-MEL-5): > 100 µM (inactive)
- GI50 (M19-MEL): > 100 µM (inactive)
- GI50 (SF-268): > 100 µM (inactive)
- GI50 (SW-620): > 100 µM (inactive)
- GI50 (SK-MEL-28): > 100 µM (inactive)
- GI50 (SNB-19): > 100 µM (inactive)
- GI50 (NCI-H23): > 100 µM (inactive)
- GI50 (HCT-116): > 100 µM (inactive)
- GI50 (OVCAR-8): > 100 µM (inactive)
- GI50 (NCI-H522): > 100 µM (inactive)
- GI50 (U-251): > 100 µM (inactive)
- GI50 (HCC 2998): > 100 µM (inactive)
- GI50 (A498): > 100 µM (inactive)
- GI50 (NCI-H460): > 100 µM (inactive)
- GI50 (SF-539): > 100 µM (inactive)
- GI50 (OVCAR-5): > 100 µM (inactive)
- GI50 (HL-60): > 100 µM (inactive)
- GI50 (DLD-1): > 100 µM (inactive)
- GI50 (CCRF-CEM): > 100 µM (inactive)
- GI50 (Malme-3M): > 100 µM (inactive)
- GI50 (CAKI-1): > 100 µM (inactive)
- GI50 (786-0): > 100 µM (inactive)
- GI50 (A549): > 100 µM (inactive)
- GI50 (UACC-62): > 100 µM (inactive)
- GI50 (KM-20L2): > 100 µM (inactive)
- GI50 (DMS-114): > 100 µM (inactive)
- GI50 (HOP-18): 2.36 µM (inactive)
- GI50 (XF498): > 100 µM (inactive)
- GI50 (HT-29): > 100 µM (inactive)
- GI50 (LXFL 529): > 100 µM (inactive)
- GI50 (RPMI-8226): > 100 µM (inactive)
- GI50 (RXF 393): > 100 µM (inactive)
- GI50 (COLO 205): > 100 µM (inactive)
- GI50 (SK-OV-3): > 100 µM (inactive)

SMILES: COC(=O)C1=C(C)N(NC(=O)c2cccc(Cl)c2)C(C)(O)C12CCOC2=O (stereo not given)
- GI50 (SF-295): > 100 µM (inactive)
- GI50 (HOP-62): > 100 µM (inactive)
- GI50 (OVCAR-4): > 100 µM (inactive)
- GI50 (SK-MEL-2): > 100 µM (inactive)
- GI50 (DMS-273): > 100 µM (inactive)
- GI50 (UO-31): > 100 µM (inactive)
- GI50 (KM12): > 100 µM (inactive)
- GI50 (ACHN): > 100 µM (inactive)
- GI50 (LOX IMVI): > 100 µM (inactive)
- GI50 (SR): > 100 µM (inactive)
- GI50 (IGROV-1): > 100 µM (inactive)
- GI50 (K562): > 100 µM (inactive)
- GI50 (M14): > 100 µM (inactive)
- GI50 (HCT-15): > 100 µM
- GI50 (NCI-H226): > 100 µM (inactive)
- GI50 (OVCAR-3): > 100 µM (inactive)
- GI50 (SNB-78): 42.1 µM (inactive)
- GI50 (EKVX): 58.7 µM (inactive)
- GI50 (UACC-257): > 100 µM (inactive)
- GI50 (SNB-75): > 100 µM (inactive)
- GI50 (SK-MEL-5): > 100 µM (inactive)
- GI50 (M19-MEL): > 100 µM (inactive)
- GI50 (SF-268): > 100 µM (inactive)
- GI50 (SW-620): > 100 µM (inactive)
- GI50 (SK-MEL-28): > 100 µM (inactive)
- GI50 (SNB-19): > 100 µM (inactive)
- GI50 (HCT-116): > 100 µM (inactive)
- GI50 (OVCAR-8): > 100 µM (inactive)
- GI50 (NCI-H522): > 100 µM (inactive)
- GI50 (U-251): > 100 µM (inactive)
- GI50 (HCC 2998): > 100 µM (inactive)
- GI50 (A498): > 100 µM (inactive)
- GI50 (NCI-H460): > 100 µM (inactive)
- GI50 (SF-539): > 100 µM (inactive)
- GI50 (OVCAR-5): > 100 µM (inactive)
- GI50 (SN12C): > 100 µM (inactive)
- GI50 (RXF 631): > 100 µM (inactive)
- GI50 (Malme-3M): > 100 µM (inactive)
- GI50 (CAKI-1): > 100 µM (inactive)
- GI50 (786-0): > 100 µM (inactive)
- GI50 (A549): > 100 µM (inactive)
- GI50 (UACC-62): > 100 µM (inactive)
- GI50 (KM-20L2): > 100 µM (inactive)
- GI50 (DMS-114): > 100 µM (inactive)
- GI50 (XF498): > 100 µM (inactive)
- GI50 (HT-29): > 100 µM (inactive)
- GI50 (LXFL 529): > 100 µM (inactive)
- GI50 (MOLT-4): > 100 µM (inactive)
- GI50 (RPMI-8226): > 100 µM (inactive)
- GI50 (SK-OV-3): > 100 µM (inactive)
